Test results from patent US8003660B2, “Modulators of muscarinic receptors” (Vertex Pharmaceuticals Incorporated, priority 2006, dated 2011).
Read-outs that look alike come from different tables or passages of the source.

Assays:
Format in all cases: cell-based
M1 muscarinic receptor = molecular target: T1, M1 muscarinic receptor (Homo sapiens, UniProt P11229); experiment: Functional mobilization of intracellular calcium (FLIPR) in CHO cells expressing M1; details: for EC50: CHO cells expressing M1, FLIPR calcium; for Emax: CHO; for M1 Activity: CHO cells expressing M1, FLIPR calcium assay
T1 construct: expressed in transfected cells; host or cells: CHO (M1-CHO)
T1 sequence (P11229 1-460): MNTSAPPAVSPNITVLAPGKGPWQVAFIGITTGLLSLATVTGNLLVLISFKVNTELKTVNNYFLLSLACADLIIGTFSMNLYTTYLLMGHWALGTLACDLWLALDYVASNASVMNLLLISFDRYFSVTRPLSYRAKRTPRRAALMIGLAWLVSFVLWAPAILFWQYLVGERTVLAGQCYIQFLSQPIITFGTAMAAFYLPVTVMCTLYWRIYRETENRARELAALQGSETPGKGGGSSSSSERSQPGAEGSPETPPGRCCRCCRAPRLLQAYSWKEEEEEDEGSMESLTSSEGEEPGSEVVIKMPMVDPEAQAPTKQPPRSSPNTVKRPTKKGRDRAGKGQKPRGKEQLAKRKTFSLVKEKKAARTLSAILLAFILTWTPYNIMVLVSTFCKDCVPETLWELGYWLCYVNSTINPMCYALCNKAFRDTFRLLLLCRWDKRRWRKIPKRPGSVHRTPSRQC
How it was run: (§1)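 Recombinant CHO cells loaded with Fluo-3 AM or Calcium 3 dye in pH 7.4 buffer containing 1 mM probenecid, with 0.5% final DMSO. For agonism, compound is added directly. For inhibition, it is preincubated 15 min, or co-applied, before carbachol at EC80. FLIPR fluorescence (ex 488, em 540 nm) is recorded for 60 s.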

M4 muscarinic receptor = molecular target: T2, M4 muscarinic receptor (Homo sapiens, UniProt P08173); experiment: Functional mobilization of intracellular calcium (FLIPR) in CHO cells expressing M4; details: for EC50: CHO cells expressing M4, FLIPR calcium; for Emax: CHO; for M4 Activity: CHO cells expressing M4, FLIPR calcium assay
T2 construct: expressed in transfected cells; host or cells: CHO (M4-CHO)
T2 sequence (P08173 1-479): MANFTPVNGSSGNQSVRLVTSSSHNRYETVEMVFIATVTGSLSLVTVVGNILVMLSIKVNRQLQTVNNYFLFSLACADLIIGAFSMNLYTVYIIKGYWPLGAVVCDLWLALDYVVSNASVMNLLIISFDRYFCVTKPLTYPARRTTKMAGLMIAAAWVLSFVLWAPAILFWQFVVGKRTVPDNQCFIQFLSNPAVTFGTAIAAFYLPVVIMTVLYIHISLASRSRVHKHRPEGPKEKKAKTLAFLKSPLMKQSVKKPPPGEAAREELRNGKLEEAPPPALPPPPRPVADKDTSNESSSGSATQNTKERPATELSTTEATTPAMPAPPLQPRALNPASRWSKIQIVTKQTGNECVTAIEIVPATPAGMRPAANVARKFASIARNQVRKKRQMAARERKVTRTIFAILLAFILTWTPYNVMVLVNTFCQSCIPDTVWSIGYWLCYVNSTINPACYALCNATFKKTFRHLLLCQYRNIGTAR
How it was run: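 Calcium flux is read on FLIPR over 60 sec at 488/540 nm in muscarinic-receptor CHO lines. Antagonist mode adds carbachol at EC80 after 15 min compound preincubation or with simultaneous co-application. Agonist mode adds compound alone. Cells carry Fluo-3 or Calcium 3 dye in probenecid-containing pH 7.4 buffer, 0.5% DMSO final.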

M3 muscarinic receptor = molecular target: T3, M3 muscarinic receptor (Homo sapiens, UniProt P20309); experiment: Functional mobilization of intracellular calcium (FLIPR) in CHO cells expressing M3; details: for EC50: CHO cells expressing M3, FLIPR calcium; for Emax: CHO; for M3 Activity: CHO cells expressing M3, FLIPR calcium assay
T3 construct: expressed in transfected cells; host or cells: CHO (M3-CHO)
How it was run: as §1

M2 muscarinic receptor = molecular target: T4, M2 muscarinic receptor (Homo sapiens, UniProt P08172); experiment: Functional mobilization of intracellular calcium (FLIPR) in CHO cells expressing M2; details: for EC50: CHO cells expressing M2, FLIPR calcium; for Emax: CHO; for M2 Activity: CHO cells expressing M2, FLIPR calcium assay
T4 construct: expressed in transfected cells; host or cells: CHO (M2-CHO)
T4 sequence (P08172 1-466): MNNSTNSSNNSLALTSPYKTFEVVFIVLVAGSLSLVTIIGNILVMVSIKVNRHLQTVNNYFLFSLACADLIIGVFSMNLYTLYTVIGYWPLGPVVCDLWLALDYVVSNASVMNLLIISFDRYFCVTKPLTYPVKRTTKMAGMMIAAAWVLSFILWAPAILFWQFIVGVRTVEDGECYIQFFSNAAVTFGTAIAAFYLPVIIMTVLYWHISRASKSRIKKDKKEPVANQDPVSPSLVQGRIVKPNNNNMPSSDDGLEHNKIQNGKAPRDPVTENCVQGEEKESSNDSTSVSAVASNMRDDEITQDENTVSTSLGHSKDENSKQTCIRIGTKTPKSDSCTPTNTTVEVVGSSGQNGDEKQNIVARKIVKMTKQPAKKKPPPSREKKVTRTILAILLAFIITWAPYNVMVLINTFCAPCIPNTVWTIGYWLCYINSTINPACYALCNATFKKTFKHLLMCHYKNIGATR
How it was run: as §1

[1] = 100% = maximum response obtained with the Carbachol control, read-out: M1 Efficacy
[2] = 100% = maximum response obtained with the Carbachol control, read-out: M4 Efficacy
[3] = 100% = maximum response obtained with the Carbachol control, read-out: M3 Efficacy
[4] = 100% = maximum response obtained with the Carbachol control, read-out: M2 Efficacy
[5] = 100% efficacy = maximum response obtained with the Carbachol control

T3 sequence (P20309 whole entry): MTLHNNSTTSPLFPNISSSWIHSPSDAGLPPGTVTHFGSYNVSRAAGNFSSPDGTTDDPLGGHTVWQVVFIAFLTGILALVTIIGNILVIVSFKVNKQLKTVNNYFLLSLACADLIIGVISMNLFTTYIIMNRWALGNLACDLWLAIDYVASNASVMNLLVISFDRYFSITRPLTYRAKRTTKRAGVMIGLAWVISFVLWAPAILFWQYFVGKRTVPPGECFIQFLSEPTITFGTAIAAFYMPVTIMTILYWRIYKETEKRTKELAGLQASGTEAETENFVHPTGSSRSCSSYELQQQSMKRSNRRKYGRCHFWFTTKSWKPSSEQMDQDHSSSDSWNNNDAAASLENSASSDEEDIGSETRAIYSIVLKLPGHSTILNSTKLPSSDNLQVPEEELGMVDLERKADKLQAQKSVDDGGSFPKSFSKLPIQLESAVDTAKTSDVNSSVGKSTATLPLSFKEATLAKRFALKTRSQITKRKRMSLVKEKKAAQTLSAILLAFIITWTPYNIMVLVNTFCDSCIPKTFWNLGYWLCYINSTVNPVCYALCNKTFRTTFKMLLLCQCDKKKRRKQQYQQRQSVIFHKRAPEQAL

Row | Compound | EC50 (M1 muscarinic receptor) [µM] | Emax (M1 muscarinic receptor; [1]) [%] | EC50 (M4 muscarinic receptor) [µM] | Emax (M4 muscarinic receptor; [2]) [%] | EC50 (M3 muscarinic receptor) [µM] | Emax (M3 muscarinic receptor; [3]) [%] | EC50 (M2 muscarinic receptor) [µM] | Emax (M2 muscarinic receptor; [4]) [%] | M1 Activity (M1 muscarinic receptor) | Emax (M1 muscarinic receptor; [5]) [%] | M4 Activity (M4 muscarinic receptor) | Emax (M4 muscarinic receptor; [5]) [%] | M3 Activity (M3 muscarinic receptor) | Emax (M3 muscarinic receptor; [5]) [%] | M2 Activity (M2 muscarinic receptor) | Emax (M2 muscarinic receptor; [5]) [%]
1 | CC(C)(C)CCN1CCC2(CC[C@@H](NC(=O)CN3CCCC3=O)c3ccc(F)cc32)CC1 [compound 76] | < 2 | 25 to 100 | < 2 | 25 to 100 | > 5 | < 25 | < 2 | 25 to 100 | – | – | – | – | – | – | – | –
2 | CCN(C(C)=O)[C@H]1CCC2(CCN(CCC(C)(C)C)CC2)c2ccccc21 [compound 211] | – | – | – | – | – | – | – | – | +++ (activity was measured to be less than 2.0 μM) | 25 to 100 | +++ (activity was measured to be less than 2.0 μM) | 25 to 100 | + (activity was measured to be greater than 5.0 μM) | < 25 | + (activity was measured to be greater than 5.0 μM) | < 25
3 | CC(C)(C)CCN1CCC2(CC[C@@H](N3CCCCC3=O)c3ccc(F)cc32)CC1 [compound 6] | > 5 | < 25 | < 2 | 25 to 100 | > 5 | < 25 | > 5 | < 25 | – | – | – | – | – | – | – | –
4 | CC(=O)N[C@@H]1CCC2(CCN(C(=O)OC(C)(C)C)CC2)c2ccccc21 [compound 280] | – | – | – | – | – | – | – | – | + (activity was measured to be greater than 5.0 μM) | < 25 | + (activity was measured to be greater than 5.0 μM) | < 25 | + (activity was measured to be greater than 5.0 μM) | < 25 | + (activity was measured to be greater than 5.0 μM) | < 25
5 | CC(C)(C)CCN1CCC2(CC[C@H](NC(=O)C3CCOCC3)c3ccc(F)cc32)CC1 [compound 202] | – | – | – | – | – | – | – | – | +++ (activity was measured to be less than 2.0 μM) | 25 to 100 | +++ (activity was measured to be less than 2.0 μM) | 25 to 100 | + (activity was measured to be greater than 5.0 μM) | < 25 | + (activity was measured to be greater than 5.0 μM) | < 25
6 | CC(C)(C)CCN1CCC2(CC[C@@H](NC(=O)C3CC3)c3ccccc32)CC1 [compound 3] | > 5 | < 25 | < 2 | 25 to 100 | > 5 | < 25 | > 5 | < 25 | – | – | – | – | – | – | – | –
7 | CC(C)(C)CCN1CCC2(CCC(C#N)c3ccccc32)CC1 (centres unmarked) [compound 97] | < 2 | 25 to 100 | < 2 | 25 to 100 | > 5 | < 25 | < 2 | 25 to 100 | – | – | – | – | – | – | – | –
8 | Cc1cc(C(=O)N[C@@H]2CCC3(CCN(CCC(C)(C)C)CC3)c3ccccc32)nn1C [compound 216] | – | – | – | – | – | – | – | – | ++ (activity was measured to be from 2.0 μM to 5.0 μM) | 25 to 100 | +++ (activity was measured to be less than 2.0 μM) | 25 to 100 | + (activity was measured to be greater than 5.0 μM) | < 25 | ++ (activity was measured to be from 2.0 μM to 5.0 μM) | 25 to 100
9 | CC(C)(C)CCN1CCC2(CC[C@H](NC(=O)[C@H]3CCC(=O)N3)c3ccc(F)cc32)CC1 [compound 203] | – | – | – | – | – | – | – | – | +++ (activity was measured to be less than 2.0 μM) | 25 to 100 | +++ (activity was measured to be less than 2.0 μM) | 25 to 100 | + (activity was measured to be greater than 5.0 μM) | < 25 | +++ (activity was measured to be less than 2.0 μM) | 25 to 100
10 | COCCC(=O)N[C@H]1CCC2(CCN(CCC(C)(C)C)CC2)c2ccccc21 [compound 147] | < 2 | 25 to 100 | < 2 | 25 to 100 | > 5 | < 25 | < 2 | 25 to 100 | – | – | – | – | – | – | – | –
11 | CCOC(=O)N(C)[C@H]1CCC2(CCN(CCC(C)(C)C)CC2)c2ccccc21 [compound 199] | – | – | – | – | – | – | – | – | ++ (activity was measured to be from 2.0 μM to 5.0 μM) | < 25 | +++ (activity was measured to be less than 2.0 μM) | 25 to 100 | + (activity was measured to be greater than 5.0 μM) | < 25 | + (activity was measured to be greater than 5.0 μM) | < 25
12 | CC(=O)N1CCCCC1C(=O)N[C@@H]1CCC2(CCN(CCC(C)(C)C)CC2)c2ccccc21 (some centres unmarked) [compound 186] | – | – | – | – | – | – | – | – | ++ (activity was measured to be from 2.0 μM to 5.0 μM) | 25 to 100 | +++ (activity was measured to be less than 2.0 μM) | 25 to 100 | + (activity was measured to be greater than 5.0 μM) | < 25 | + (activity was measured to be greater than 5.0 μM) | < 25
13 | C[C@@H](C(=O)N[C@H]1CCC2(CCN(CCC(C)(C)C)CC2)c2ccccc21)N1CCCC1=O [compound 137] | < 2 | 25 to 100 | < 2 | 25 to 100 | > 5 | < 25 | > 5 | < 25 | – | – | – | – | – | – | – | –
14 | CC(=O)N[C@H]1CC2(CCN(CC(=O)N(CC#N)C(C)C)CC2)c2ccccc21 [compound 258] | – | – | – | – | – | – | – | – | + (activity was measured to be greater than 5.0 μM) | < 25 | + (activity was measured to be greater than 5.0 μM) | < 25 | + (activity was measured to be greater than 5.0 μM) | < 25 | + (activity was measured to be greater than 5.0 μM) | < 25
15 | CC(=O)N[C@H](C)C(=O)N[C@H]1CCC2(CCN(CCC(C)(C)C)CC2)c2cc(F)ccc21 [compound 46] | < 2 | 25 to 100 | < 2 | 25 to 100 | > 5 | < 25 | < 2 | 25 to 100 | – | – | – | – | – | – | – | –
16 | CC(C)CCN1CCC2(CC1)C[C@H](NC(=O)N1CCCC1)c1ccccc12 [compound 294] | – | – | – | – | – | – | – | – | + (activity was measured to be greater than 5.0 μM) | < 25 | + (activity was measured to be greater than 5.0 μM) | < 25 | + (activity was measured to be greater than 5.0 μM) | < 25 | + (activity was measured to be greater than 5.0 μM) | < 25
